Assay results from ChEMBL document CHEMBL4507297, “Data for DCP probe PF-04457845” (2021).

Assays:
[1] = biological target: Serine/threonine-protein kinase/endoribonuclease IRE1 (Homo sapiens) (UniProt O75460); conditions: Compound concentration 1000.0 nM
[2] = biological target: Muscarinic acetylcholine receptor M3 (Homo sapiens) (UniProt P20309); conditions: Compound concentration 10.0 uM
[3] = test system: Receptor-type tyrosine-protein kinase FLT3 (Homo sapiens), P36888 [UNDEFINED MUTATION]; conditions: Compound concentration 1000.0 nM
[4] = biological target: Epidermal growth factor receptor (Homo sapiens) (UniProt P00533); conditions: Compound concentration 1000.0 nM
[5] = biological target: Dual specificity mitogen-activated protein kinase kinase 1 (Homo sapiens) (UniProt Q02750); conditions: Compound concentration 1000.0 nM
Chain of Dual specificity mitogen-activated protein kinase kinase 1 (Homo sapiens) (Q02750 whole entry): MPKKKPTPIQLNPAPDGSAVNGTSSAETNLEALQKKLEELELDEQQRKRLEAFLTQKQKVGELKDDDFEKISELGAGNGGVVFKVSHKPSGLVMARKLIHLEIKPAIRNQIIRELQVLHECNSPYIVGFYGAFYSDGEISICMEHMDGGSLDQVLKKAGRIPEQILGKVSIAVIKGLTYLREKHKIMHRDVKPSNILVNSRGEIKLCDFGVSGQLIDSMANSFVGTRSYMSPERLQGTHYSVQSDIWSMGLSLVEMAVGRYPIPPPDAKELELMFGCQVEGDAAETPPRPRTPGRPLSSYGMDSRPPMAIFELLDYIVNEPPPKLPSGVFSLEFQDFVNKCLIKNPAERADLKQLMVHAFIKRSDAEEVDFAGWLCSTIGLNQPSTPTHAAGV

[6] = test system: Mast/stem cell growth factor receptor Kit (Homo sapiens), P10721 [L576P]; conditions: Compound concentration 1000.0 nM
[7] = biological target: Tyrosine-protein kinase JAK1 (Homo sapiens) (UniProt P23458); conditions: Compound concentration 1000.0 nM
Chain of Tyrosine-protein kinase JAK1 (Homo sapiens) (P23458 whole entry): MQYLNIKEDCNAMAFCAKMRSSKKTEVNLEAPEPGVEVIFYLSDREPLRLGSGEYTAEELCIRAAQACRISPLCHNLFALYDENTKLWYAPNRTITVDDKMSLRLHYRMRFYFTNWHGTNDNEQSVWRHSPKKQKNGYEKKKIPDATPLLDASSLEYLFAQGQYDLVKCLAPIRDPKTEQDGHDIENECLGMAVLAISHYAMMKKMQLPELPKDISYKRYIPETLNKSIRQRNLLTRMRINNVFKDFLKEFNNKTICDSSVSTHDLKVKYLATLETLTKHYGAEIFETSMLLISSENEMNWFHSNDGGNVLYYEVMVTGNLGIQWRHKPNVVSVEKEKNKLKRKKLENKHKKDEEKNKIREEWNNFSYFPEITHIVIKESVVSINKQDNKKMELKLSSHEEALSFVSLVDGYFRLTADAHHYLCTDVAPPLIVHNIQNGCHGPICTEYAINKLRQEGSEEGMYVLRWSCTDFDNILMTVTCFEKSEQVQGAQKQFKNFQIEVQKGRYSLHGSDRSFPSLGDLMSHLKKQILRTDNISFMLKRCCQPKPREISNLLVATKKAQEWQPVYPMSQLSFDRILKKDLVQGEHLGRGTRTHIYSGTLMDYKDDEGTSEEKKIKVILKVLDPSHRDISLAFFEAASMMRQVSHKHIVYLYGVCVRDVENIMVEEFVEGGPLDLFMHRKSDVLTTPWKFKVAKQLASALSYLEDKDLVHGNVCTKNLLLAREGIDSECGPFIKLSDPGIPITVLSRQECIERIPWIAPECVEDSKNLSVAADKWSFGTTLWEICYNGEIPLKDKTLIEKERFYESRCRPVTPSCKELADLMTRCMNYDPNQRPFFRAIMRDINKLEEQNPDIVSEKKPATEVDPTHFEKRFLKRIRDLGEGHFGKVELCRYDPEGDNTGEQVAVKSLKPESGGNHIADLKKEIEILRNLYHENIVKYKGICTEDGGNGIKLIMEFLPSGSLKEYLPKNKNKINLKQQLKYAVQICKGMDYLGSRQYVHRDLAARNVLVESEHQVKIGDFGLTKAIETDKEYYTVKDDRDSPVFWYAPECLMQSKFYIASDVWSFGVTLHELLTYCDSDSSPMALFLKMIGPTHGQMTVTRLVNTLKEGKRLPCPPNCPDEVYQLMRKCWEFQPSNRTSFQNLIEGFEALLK

[8] = biological target: Uncharacterized serine/threonine-protein kinase SBK3 (Homo sapiens) (UniProt P0C264); conditions: Compound concentration 1000.0 nM
[9] = biological target: Proto-oncogene tyrosine-protein kinase ROS (Homo sapiens) (UniProt P08922); conditions: Compound concentration 1000.0 nM
[10] = biological target: Dual specificity testis-specific protein kinase 1 (Homo sapiens) (UniProt Q15569); conditions: Compound concentration 1000.0 nM
[11] = biological target: Beta-1 adrenergic receptor (Homo sapiens) (UniProt P08588); conditions: Compound concentration 10.0 uM
[12] = biological target: Macrophage-stimulating protein receptor (Homo sapiens) (UniProt Q04912); conditions: Compound concentration 1000.0 nM
[13] = biological target: Ribosomal protein S6 kinase alpha-4 (Homo sapiens) (UniProt O75676); conditions: Compound concentration 1000.0 nM
[14] = biological target: Serine/threonine-protein kinase Nek10 (Homo sapiens) (UniProt Q6ZWH5); conditions: Compound concentration 1000.0 nM
[15] = biological target: Peripheral plasma membrane protein CASK (Homo sapiens) (UniProt O14936); conditions: Compound concentration 1000.0 nM
[16] = biological target: Serine/threonine-protein kinase Nek1 (Homo sapiens) (UniProt Q96PY6); conditions: Compound concentration 1000.0 nM
[17] = biological target: Ribosomal protein S6 kinase beta-1 (Homo sapiens) (UniProt P23443); conditions: Compound concentration 1000.0 nM
[18] = biological target: Proto-oncogene tyrosine-protein kinase Src (Homo sapiens) (UniProt P12931); conditions: Compound concentration 1000.0 nM
[19] = biological target: Serine/threonine-protein kinase 35 (Homo sapiens) (UniProt Q8TDR2); conditions: Compound concentration 1000.0 nM
[20] = biological target: Mitogen-activated protein kinase kinase kinase 11 (Homo sapiens) (UniProt Q16584); conditions: Compound concentration 1000.0 nM
[21] = biological target: Mast/stem cell growth factor receptor Kit (Homo sapiens) (UniProt P10721); conditions: Compound concentration 1000.0 nM
[22] = biological target: Serine/threonine-protein kinase Nek3 (Homo sapiens) (UniProt P51956); conditions: Compound concentration 1000.0 nM
[23] = biological target: Mitogen-activated protein kinase 14 (Homo sapiens) (UniProt Q16539); conditions: Compound concentration 1000.0 nM
[24] = biological target: Phosphatidylinositol 4-phosphate 5-kinase type-1 gamma (Homo sapiens) (UniProt O60331); conditions: Compound concentration 1000.0 nM
[25] = biological target: Ribosomal protein S6 kinase alpha-1 (Homo sapiens) (UniProt Q15418); conditions: Compound concentration 1000.0 nM
[26] = biological target: Inhibitor of nuclear factor kappa-B kinase subunit alpha (Homo sapiens) (UniProt O15111); conditions: Compound concentration 1000.0 nM
[27] = biological target: SNF-related serine/threonine-protein kinase (Homo sapiens) (UniProt Q9NRH2); conditions: Compound concentration 1000.0 nM
[28] = biological target: Serine/threonine-protein kinase NIM1 (Homo sapiens) (UniProt Q8IY84); conditions: Compound concentration 1000.0 nM
[29] = biological target: Interleukin-1 receptor-associated kinase 1 (Homo sapiens) (UniProt P51617); conditions: Compound concentration 1000.0 nM
[30] = biological target: Serine/threonine-protein kinase TAO2 (Homo sapiens) (UniProt Q9UL54); conditions: Compound concentration 1000.0 nM
[31] = biological target: Insulin-like growth factor 1 receptor (Homo sapiens) (UniProt P08069); conditions: Compound concentration 1000.0 nM
Chain of Insulin-like growth factor 1 receptor (Homo sapiens) (P08069 31-736 limits assumed): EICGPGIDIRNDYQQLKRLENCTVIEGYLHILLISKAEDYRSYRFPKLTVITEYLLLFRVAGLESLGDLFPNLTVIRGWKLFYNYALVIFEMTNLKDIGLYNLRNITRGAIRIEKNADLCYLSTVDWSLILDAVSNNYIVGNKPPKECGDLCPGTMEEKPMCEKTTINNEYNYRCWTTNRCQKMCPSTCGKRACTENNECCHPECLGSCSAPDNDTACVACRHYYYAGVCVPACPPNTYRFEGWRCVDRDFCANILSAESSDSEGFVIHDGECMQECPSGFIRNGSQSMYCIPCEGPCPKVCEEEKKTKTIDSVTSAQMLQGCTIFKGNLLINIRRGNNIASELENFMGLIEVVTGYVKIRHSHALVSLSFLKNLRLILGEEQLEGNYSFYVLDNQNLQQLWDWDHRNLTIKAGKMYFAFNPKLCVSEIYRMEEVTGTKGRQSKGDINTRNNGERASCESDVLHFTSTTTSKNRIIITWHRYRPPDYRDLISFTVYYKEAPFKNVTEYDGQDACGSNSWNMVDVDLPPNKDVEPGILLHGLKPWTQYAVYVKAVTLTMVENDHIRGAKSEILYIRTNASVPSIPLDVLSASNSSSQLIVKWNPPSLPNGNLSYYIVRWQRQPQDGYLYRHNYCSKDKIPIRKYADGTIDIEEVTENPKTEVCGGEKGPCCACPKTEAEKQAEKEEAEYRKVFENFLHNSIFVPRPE
Chain of Insulin-like growth factor 1 receptor (Homo sapiens) (P08069 741-1367 limits assumed): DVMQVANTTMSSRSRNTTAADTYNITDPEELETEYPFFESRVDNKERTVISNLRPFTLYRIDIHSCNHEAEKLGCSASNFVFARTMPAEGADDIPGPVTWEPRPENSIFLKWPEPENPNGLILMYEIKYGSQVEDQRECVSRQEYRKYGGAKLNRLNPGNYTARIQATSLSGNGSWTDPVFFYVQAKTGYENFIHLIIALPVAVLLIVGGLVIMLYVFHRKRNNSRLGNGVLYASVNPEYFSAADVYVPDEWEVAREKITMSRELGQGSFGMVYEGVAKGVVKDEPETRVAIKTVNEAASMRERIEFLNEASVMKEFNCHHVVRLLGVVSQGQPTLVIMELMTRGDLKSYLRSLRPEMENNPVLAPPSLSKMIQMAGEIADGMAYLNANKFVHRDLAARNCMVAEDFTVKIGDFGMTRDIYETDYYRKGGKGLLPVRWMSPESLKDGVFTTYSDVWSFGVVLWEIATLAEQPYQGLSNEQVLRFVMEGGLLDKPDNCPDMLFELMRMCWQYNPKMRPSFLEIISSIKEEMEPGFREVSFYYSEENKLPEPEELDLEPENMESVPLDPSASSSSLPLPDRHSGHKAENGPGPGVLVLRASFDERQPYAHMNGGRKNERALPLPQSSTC

[32] = biological target: Phosphatidylinositol 4-phosphate 3-kinase C2 domain-containing subunit beta (Homo sapiens) (UniProt O00750); conditions: Compound concentration 1000.0 nM
[33] = biological target: Ribosomal protein S6 kinase alpha-3 (Homo sapiens) (UniProt P51812); conditions: Compound concentration 1000.0 nM
[34] = biological target: Serine/threonine-protein kinase pim-3 (Homo sapiens) (UniProt Q86V86); conditions: Compound concentration 1000.0 nM
[35] = biological target: Hepatocyte growth factor receptor (Homo sapiens) (UniProt P08581); conditions: Compound concentration 1000.0 nM
[36] = biological target: Mitogen-activated protein kinase kinase kinase 14 (Homo sapiens) (UniProt Q99558); conditions: Compound concentration 1000.0 nM
[37] = biological target: Serine/threonine-protein kinase N1 (Homo sapiens) (UniProt Q16512); conditions: Compound concentration 1000.0 nM
Chain of Serine/threonine-protein kinase N1 (Homo sapiens) (Q16512 2-942 limits assumed): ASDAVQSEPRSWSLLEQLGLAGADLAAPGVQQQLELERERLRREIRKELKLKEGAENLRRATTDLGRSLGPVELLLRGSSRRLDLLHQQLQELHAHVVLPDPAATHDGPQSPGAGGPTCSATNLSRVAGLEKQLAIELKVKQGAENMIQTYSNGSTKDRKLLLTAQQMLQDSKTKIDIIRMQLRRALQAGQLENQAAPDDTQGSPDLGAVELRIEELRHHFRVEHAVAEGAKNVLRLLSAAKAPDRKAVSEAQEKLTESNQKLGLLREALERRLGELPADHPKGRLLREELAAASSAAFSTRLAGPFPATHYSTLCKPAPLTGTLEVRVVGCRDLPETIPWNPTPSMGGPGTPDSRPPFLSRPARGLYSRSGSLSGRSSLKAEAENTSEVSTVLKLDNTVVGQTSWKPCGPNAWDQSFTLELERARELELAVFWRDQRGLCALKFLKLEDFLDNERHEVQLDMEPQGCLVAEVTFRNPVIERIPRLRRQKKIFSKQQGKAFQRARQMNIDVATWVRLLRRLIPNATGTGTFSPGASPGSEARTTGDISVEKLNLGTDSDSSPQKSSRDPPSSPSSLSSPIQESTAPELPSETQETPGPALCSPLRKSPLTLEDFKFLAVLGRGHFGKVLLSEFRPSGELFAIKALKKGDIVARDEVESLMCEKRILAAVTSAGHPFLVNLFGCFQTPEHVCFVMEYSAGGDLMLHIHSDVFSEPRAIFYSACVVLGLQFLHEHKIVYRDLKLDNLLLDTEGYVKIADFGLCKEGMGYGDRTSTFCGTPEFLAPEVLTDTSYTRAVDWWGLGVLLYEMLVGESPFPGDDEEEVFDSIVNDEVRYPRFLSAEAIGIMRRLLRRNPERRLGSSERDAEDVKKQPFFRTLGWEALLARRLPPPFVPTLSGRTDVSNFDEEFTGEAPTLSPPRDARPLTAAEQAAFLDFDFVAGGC

[38] = biological target: Mitogen-activated protein kinase 4 (Homo sapiens) (UniProt P31152); conditions: Compound concentration 1000.0 nM
[39] = biological target: Activin receptor type-1 (Homo sapiens) (UniProt Q04771); conditions: Compound concentration 1000.0 nM
[40] = biological target: Serine/threonine-protein kinase ULK3 (Homo sapiens) (UniProt Q6PHR2); conditions: Compound concentration 1000.0 nM
[41] = biological target: Calcium/calmodulin-dependent protein kinase type II subunit beta (Homo sapiens) (UniProt Q13554); conditions: Compound concentration 1000.0 nM
[42] = biological target: Serine/threonine-protein kinase Nek7 (Homo sapiens) (UniProt Q8TDX7); conditions: Compound concentration 1000.0 nM
[43] = biological target: Focal adhesion kinase 1 (Homo sapiens) (UniProt Q05397); conditions: Compound concentration 1000.0 nM
[44] = biological target: Mitogen-activated protein kinase 11 (Homo sapiens) (UniProt Q15759); conditions: Compound concentration 1000.0 nM
[45] = test system: Tyrosine-protein kinase ABL1 (Homo sapiens), P00519 [T315I]; conditions: Compound concentration 1000.0 nM

Chain of Serine/threonine-protein kinase/endoribonuclease IRE1 (Homo sapiens) (O75460 19-977 limits assumed): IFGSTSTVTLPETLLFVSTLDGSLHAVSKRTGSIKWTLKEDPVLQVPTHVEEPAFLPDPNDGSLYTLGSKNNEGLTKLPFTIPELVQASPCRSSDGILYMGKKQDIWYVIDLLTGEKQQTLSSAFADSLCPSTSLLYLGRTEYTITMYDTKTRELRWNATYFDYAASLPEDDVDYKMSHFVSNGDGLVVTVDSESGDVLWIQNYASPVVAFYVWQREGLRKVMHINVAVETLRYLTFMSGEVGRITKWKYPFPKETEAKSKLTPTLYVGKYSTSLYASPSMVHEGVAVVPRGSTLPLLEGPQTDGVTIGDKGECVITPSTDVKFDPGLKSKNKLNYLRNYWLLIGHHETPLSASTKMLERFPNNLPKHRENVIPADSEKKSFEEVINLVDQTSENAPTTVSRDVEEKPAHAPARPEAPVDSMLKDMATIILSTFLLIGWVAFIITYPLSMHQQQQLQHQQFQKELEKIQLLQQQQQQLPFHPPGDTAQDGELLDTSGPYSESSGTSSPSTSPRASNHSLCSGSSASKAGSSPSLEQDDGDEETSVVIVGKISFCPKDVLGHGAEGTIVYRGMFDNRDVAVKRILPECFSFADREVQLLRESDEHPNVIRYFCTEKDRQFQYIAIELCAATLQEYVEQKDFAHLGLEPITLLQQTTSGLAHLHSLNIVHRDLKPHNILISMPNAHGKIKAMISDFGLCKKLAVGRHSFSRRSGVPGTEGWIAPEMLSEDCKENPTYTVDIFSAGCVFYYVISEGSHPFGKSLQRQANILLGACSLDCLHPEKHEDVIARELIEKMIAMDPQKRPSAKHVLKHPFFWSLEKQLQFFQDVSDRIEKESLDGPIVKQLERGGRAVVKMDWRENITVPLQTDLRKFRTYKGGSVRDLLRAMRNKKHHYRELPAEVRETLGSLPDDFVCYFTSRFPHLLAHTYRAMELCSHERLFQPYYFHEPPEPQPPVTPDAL

O=C(Nc1cccnn1)N1CC(C/C=C/c2cncc(Oc3ccc(C(F)(F)F)cn3)n2)C1
residual activity [1]: 67% | inhibition [2]: 0.26% | residual activity [3]: 68% | residual activity [4]: 99% | residual activity [5]: 93% | residual activity [6]: 88% | residual activity [7]: 100% | residual activity [8]: 100% | residual activity [9]: 100% | residual activity [10]: 100% | inhibition [11]: 1.97% | residual activity [12]: 100% | residual activity [13]: 92% | residual activity [14]: 100% | residual activity [15]: 64% | residual activity [16]: 100% | residual activity [17]: 71% | residual activity [18]: 100% | residual activity [19]: 94% | residual activity [20]: 100% | residual activity [21]: 80% | residual activity [22]: 100% | residual activity [23]: 100% | residual activity [24]: 100% | residual activity [25]: 92% | residual activity [26]: 69% | residual activity [27]: 100% | residual activity [28]: 76% | residual activity [29]: 66% | residual activity [30]: 66% | residual activity [31]: 100% | residual activity [32]: 93% | residual activity [33]: 73% | residual activity [34]: 100% | residual activity [35]: 95% | residual activity [36]: 77% | residual activity [37]: 100% | residual activity [38]: 100% | residual activity [39]: 92% | residual activity [40]: 82% | residual activity [41]: 100% | residual activity [42]: 100% | residual activity [43]: 100% | residual activity [44]: 100% | residual activity [45]: 60%

O=C(Nc1cccnn1)N1CCC(=Cc2cccc(Oc3ccc(C(F)(F)F)cn3)c2)CC1
residual activity [1]: 92% | inhibition [2]: 27.5% | residual activity [3]: 94% | residual activity [4]: 100% | residual activity [5]: 100% | residual activity [6]: 0% | residual activity [7]: 97% | residual activity [8]: 100% | residual activity [9]: 80% | residual activity [10]: 91% | inhibition [11]: 16.5% | residual activity [12]: 92% | residual activity [13]: 100% | residual activity [14]: 100% | residual activity [15]: 92% | residual activity [16]: 98% | residual activity [17]: 100% | residual activity [18]: 88% | residual activity [19]: 100% | residual activity [20]: 74% | residual activity [21]: 81% | residual activity [22]: 100% | residual activity [23]: 100% | residual activity [24]: 66% | residual activity [25]: 100% | residual activity [26]: 93% | residual activity [27]: 100% | residual activity [28]: 100% | residual activity [29]: 100% | residual activity [30]: 100% | residual activity [31]: 87% | residual activity [32]: 91% | residual activity [33]: 100% | residual activity [34]: 79% | residual activity [35]: 100% | residual activity [36]: 100% | residual activity [37]: 100% | residual activity [38]: 95% | residual activity [39]: 92% | residual activity [40]: 100% | residual activity [41]: 89% | residual activity [42]: 100% | residual activity [43]: 100% | residual activity [44]: 83% | residual activity [45]: 100%
